Measured values from ChEMBL document CHEMBL1157393, “Selective inhibition of aromatase by a dihydroisocoumarin from Xyris pterygoblephara” (J Nat Prod, 2008).
Activity calls are given as the source filed them. The calls are words filed in the database; no cut-off is given here.

Key:
Cytochrome P450 1A1 = target: T1, Cytochrome P450 1A1 (Homo sapiens, UniProt P04798); assay: Inhibition of CYP1A1; type: ADME
T1 sequence (P04798 whole entry): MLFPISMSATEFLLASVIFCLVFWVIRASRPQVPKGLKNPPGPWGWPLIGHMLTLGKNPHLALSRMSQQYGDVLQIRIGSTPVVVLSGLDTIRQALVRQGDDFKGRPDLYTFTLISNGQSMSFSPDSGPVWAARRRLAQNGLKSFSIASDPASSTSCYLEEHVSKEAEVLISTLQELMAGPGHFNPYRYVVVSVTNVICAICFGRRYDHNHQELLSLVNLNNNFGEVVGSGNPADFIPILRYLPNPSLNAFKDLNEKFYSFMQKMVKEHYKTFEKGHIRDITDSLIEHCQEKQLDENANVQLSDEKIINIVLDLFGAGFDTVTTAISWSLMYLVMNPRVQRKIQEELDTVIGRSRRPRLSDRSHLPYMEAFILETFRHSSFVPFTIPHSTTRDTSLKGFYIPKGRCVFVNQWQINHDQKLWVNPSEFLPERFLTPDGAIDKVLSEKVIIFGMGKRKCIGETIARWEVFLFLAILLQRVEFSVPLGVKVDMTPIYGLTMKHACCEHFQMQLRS

Cytochrome P450 2C8 = target: T2, Cytochrome P450 2C8 (Homo sapiens, UniProt P10632); assay: Inhibition of CYP2C8; type: ADME
T2 sequence (P10632 whole entry): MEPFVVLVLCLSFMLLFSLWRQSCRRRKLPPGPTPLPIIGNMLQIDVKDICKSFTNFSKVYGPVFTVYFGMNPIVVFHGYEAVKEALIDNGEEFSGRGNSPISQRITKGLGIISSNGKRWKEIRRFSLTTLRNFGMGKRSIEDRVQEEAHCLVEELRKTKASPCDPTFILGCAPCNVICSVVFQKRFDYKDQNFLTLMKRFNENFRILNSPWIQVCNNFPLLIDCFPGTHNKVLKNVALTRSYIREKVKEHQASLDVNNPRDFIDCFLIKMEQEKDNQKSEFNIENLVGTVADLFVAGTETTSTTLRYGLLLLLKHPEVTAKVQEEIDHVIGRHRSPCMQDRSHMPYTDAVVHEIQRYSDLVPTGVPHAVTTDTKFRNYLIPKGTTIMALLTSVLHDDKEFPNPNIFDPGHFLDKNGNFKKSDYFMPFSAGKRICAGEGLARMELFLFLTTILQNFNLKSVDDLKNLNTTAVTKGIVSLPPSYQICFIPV

Cytochrome P450 3A4 = Cytochrome P450 3A4 (Homo sapiens, UniProt P08684); assay: Inhibition of CYP3A4; type: ADME
Sequence of Cytochrome P450 3A4 (P08684 whole entry): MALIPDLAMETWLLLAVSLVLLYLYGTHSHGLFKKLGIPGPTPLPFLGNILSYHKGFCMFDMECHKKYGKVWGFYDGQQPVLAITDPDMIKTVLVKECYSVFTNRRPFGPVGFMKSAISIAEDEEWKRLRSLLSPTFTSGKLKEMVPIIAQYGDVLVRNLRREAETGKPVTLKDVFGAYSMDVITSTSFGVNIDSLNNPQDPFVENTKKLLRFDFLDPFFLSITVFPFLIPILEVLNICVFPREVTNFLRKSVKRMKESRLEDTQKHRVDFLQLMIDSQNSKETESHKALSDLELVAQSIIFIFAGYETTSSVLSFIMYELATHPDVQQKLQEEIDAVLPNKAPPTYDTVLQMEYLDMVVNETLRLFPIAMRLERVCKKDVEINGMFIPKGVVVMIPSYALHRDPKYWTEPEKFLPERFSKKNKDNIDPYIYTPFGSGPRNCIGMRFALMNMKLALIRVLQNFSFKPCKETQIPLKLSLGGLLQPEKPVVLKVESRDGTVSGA

Lu1 = assay: Antiproliferative activity against human LU1 cells assessed as cell growth upto 65 uM after 4 days by sulforhodamine B assay; type: functional, cell-based
HepG2 = assay: Antiproliferative activity against human HepG2 cells assessed as cell growth upto 65 uM after 4 days by sulforhodamine B assay; type: functional, cell-based
MCF7 = assay: Antiproliferative activity against human MCF7 cells assessed as cell growth after 4 days by sulforhodamine B assay; type: functional, cell-based; details: MCF7, 96 h
LNCaP = assay: Antiproliferative activity against human LNCaP 1740 cells assessed as cell growth after 4 days by sulforhodamine B assay; type: functional, cell-based; details: 96 h
Aromatase = target: T3, Aromatase (Homo sapiens, UniProt P11511); assay: Inhibition of aromatase
T3 sequence (P11511 whole entry): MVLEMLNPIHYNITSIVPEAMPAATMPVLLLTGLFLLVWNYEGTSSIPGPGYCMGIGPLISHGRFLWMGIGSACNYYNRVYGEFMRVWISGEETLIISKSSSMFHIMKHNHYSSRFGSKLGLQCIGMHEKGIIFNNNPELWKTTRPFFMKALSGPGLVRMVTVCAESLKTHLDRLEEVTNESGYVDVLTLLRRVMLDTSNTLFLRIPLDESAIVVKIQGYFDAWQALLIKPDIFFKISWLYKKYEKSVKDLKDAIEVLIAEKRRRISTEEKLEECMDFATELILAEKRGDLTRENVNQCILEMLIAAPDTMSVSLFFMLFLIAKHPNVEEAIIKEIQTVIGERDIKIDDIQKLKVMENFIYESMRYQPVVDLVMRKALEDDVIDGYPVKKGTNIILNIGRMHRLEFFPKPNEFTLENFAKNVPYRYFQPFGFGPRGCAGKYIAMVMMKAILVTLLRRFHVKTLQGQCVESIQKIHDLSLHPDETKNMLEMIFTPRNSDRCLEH

| IC50 (Cytochrome P450 1A1) [µM] | IC50 (Cytochrome P450 2C8) [µM] | IC50 (Cytochrome P450 3A4) [µM] | IC50 (MCF7) [µM] | IC50 (LNCaP) [µM] | IC50 (Aromatase) [µM] | SMILES | Activity (Lu1) | Activity (HepG2) |
| --- | --- | --- | --- | --- | --- | --- | --- | --- |
| 38 | > 65 | > 65 | 66.9 | 57.5 | – | CCCCC[C@H]1OC(=O)c2ccc(OC)cc2[C@H]1OC(C)=O | inactive | inactive |
| – | – | – | – | – | 5 | C[C@@H]1O[C@@H](O[C@H]2[C@H](Oc3cc(O)c4c(c3)O[C@H](c3ccc(O)cc3)CC4=O)O[C@H](CO)[C@@H](O)[C@@H]2O)[C@H](O)[C@H](O)[C@H]1O [NARINGIN] | – | – |
